Experiments:
Caco-2 cell monolayers = test: Bioabsorption in the Caco cell model (Hilgers et al.); type: in vitro ADME; details: estimated from Caco cell model
Excerpt: The bioabsorption of the compounds of the formula I can be examined using the Caco cell model (A. R. Hilgers et al., Caco-2 cell monolayers as a model for drug transport across the intestinal mucosa, Pharm. Res. 1990, 7, 902).
Below is a bioabsorption measurement for a reference compound

[1] = test system: cholesterol absorption (uptake of ^14C-cholesterol by the liver); test: Cholesterol absorption test: uptake of 14C-cholesterol by the liver after peroral test meal; type: in vivo, NMRI mice; details: dose at which uptake of 14C-cholesterol by the liver is halved vs control group, mouse
Excerpt: Effect on Cholesterol Absorption+^3H-taurocholic Acid Excretion Using Fecal Excrement of Mice, Rats or Hamsters
NMRI mice, Wistar rats, or Golden Syrian hamsters (in groups of n=4-6) are kept in metabolic cages, where they are fed with a standard diet (Altromin, Lage (Lippe)). The afternoon prior to the administration of the radioactive tracers (^14C-cholesterol), the feed is removed and the animals are adapted to grates.
Additionally, the animals are labeled s.c. with ^3H-TCA (taurocholic acid) (for example 1 μCi/mouse up to 5 μCi/rat) 24 hours prior to the peroral administration of the test meal (^14C-cholesterol in Intralipid® 20, Pharmacia-Upjohn).
Cholesterol absorption test: 0.25 ml/mouse Intralipid® 20 (Pharmacia-Upjohn) ((spiked with 0.25 μCi of ^14C-cholesterol in 0.1 mg of cholesterol) is administered perorally by gavage.
Test substances are prepared separately in 0.5% methylcellulose (Sigma)/5% Solutol (BASF, Ludwigshafen) or a suitable vehicle.
The administration volume of the test substance is 0.5 ml/mouse. The test substance is administered immediately prior to the test meal (Intralipid labeled with ^14C-cholesterol) (cholesterol absorption test).
The feces are collected over a period of 24 h: fecal elimination of ^14C-cholesterol and ^3H-taurocholic acid (TCA) is determined after 24 hours.
The livers are removed and homogenized, and aliquots are incinerated in an oximate (Model 307, Packard) to determine the amount of ^14C-cholesterol which had been taken up/absorbed.
The amount of ^14C-cholesterol taken up by the liver is based on the administered dose. The ED50 values are interpolated from a dose-effect curve as the dose at which the uptake of ^14C-cholesterol by the liver is halved (50%), based on a control group.

Estimated human bioabsorption (Caco-2 cell monolayers) [%]	Compound	ED50 (liver) [1] [mg/mouse]
100	O=C1[C@H](CC[C@H](O)c2ccc(F)cc2)[C@@H](c2ccc(O)cc2)N1c1ccc(F)cc1 [Ezetimibe]	–
–	O=C(COCCOCC(=O)Nc1ccccc1C(Nc1ccccn1)C(c1ccccn1)C(O)c1ccccc1)NCc1ccc(C2C(CCC(O)c3ccc(F)cc3)C(=O)N2c2ccc(F)cc2)cc1.O=C(O)C(F)(F)F (stereo not shown) [XIX, {1-[2-(2-{2-[(4-{1-(4-Fluorophenyl)-3-[3-(4-fluorophenyl)-3-hydroxypropyl]-4-oxoazetidin-2-yl}benzylcarbamoyl)methoxy]ethoxy}acetylamino)phenyl]-3-hydroxy-3-phenyl-2-pyridin-2-ylpropyl}pyridin-2-ylammonium trifluoroacetate]	0.1
–	O=C(CCCCCCCCCCC(=O)Nc1ccccc1C(Nc1ccccn1)C(c1ccccn1)C(O)c1ccccc1)NCc1cccc(C2C(CCC(O)c3ccc(F)cc3)C(=O)N2c2ccc(F)cc2)c1.O=C(O)C(F)(F)F (stereo not shown) [XVI, (1-{2-[11-(3-{1-(4-Fluorophenyl)-3-[3-(4-fluorophenyl)-3-hydroxypropyl]-4-oxoazetidin-2-yl}benzylcarbamoyl)undecanoylamino]phenyl}-3-hydroxy-3-phenyl-2-pyridin-2-ylpropyl)pyridin-2-yl ammonium trifluoroacetate]	0.03
–	O=C(COCCOCCOCC(=O)Nc1ccccc1C(Nc1ccccn1)C(c1ccccn1)C(O)c1ccccc1)NCc1cccc(C2C(CCC(O)c3ccc(F)cc3)C(=O)N2c2ccc(F)cc2)c1.O=C(O)C(F)(F)F (stereo not shown) [XVIII, (1-{2-[2-(2-{2-[(3-{1-(4-Fluorophenyl)-3-[3-(4-fluorophenyl)-3-hydroxypropyl]-4-oxoazetidin-2-yl}benzylcarbamoyl)methoxy]ethoxy}ethoxy)acetylamino]phenyl}-3-hydroxy-3-phenyl-2-pyridin-2-ylpropyl)pyridin-2-ylammonium trifluoroacetate]	0.3

— patent US6703386B2, “Diphenylazetidinone derivatives, process for their preparation, medicaments comprising these compounds and their use” (Aventis Pharma Deutschland GmbH, priority 2000, dated 2004)
